Data taken from patent US20250122203A1, “ADENOSINE RECEPTOR ANTAGONISTS” (Crossignal Therapeutics, Inc., priority 2021, published 2025).

What was measured:
[1] = target: human adenosine A2a receptor (Homo sapiens, UniProt P29274); experiment: Adenosine A2a Receptor Whole Cell Cyclic AMP Assay; details: HEK293 cells stably expressing human A2a; for A2a @ 100 μM Adenosine (cAMP IC50): in the presence of 100 μM adenosine; for A2a @ 1 μM Adenosine (cAMP IC50): in the presence of 1 μM adenosine
[2] = target: T1, human adenosine A2b receptor (Homo sapiens, UniProt P29275); experiment: Adenosine A2b Receptor Whole Cell Cyclic AMP Assay; details: HEK293 cells transfected with human A2b; in the presence of 10 μM adenosine
T1 sequence (P29275 1-332): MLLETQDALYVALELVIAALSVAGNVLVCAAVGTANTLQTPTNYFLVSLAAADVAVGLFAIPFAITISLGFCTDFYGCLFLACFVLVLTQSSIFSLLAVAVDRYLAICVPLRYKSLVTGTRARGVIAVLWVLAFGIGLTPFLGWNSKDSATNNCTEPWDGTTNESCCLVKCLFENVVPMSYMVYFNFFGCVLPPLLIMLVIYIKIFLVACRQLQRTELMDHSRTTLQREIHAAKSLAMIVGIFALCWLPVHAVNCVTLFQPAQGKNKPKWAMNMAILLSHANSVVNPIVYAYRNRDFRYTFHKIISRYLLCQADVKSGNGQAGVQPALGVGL

Sequence of human adenosine A2a receptor (P29274 whole entry): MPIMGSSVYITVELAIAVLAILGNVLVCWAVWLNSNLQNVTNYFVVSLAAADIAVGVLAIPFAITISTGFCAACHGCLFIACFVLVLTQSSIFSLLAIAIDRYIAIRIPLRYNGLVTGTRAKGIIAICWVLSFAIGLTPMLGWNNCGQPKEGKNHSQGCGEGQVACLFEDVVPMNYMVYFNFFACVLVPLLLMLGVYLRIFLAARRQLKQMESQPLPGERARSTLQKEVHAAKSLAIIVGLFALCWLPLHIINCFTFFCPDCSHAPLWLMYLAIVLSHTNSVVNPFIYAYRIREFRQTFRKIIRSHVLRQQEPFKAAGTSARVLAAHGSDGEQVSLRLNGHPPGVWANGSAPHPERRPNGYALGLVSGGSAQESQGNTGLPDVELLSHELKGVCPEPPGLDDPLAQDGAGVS

| SMILES | A2a @ 100 μM Adenosine (cAMP IC50) [1] | A2a @ 1 μM Adenosine (cAMP IC50) [1] | other results |
| --- | --- | --- | --- |
| Nc1nc(-c2ccc(F)cc2)c(-c2ccc3ncoc3c2)n2nnnc12 [1-10, 5-(benzo[d]oxazol-6-yl)-6-(4-fluorophenyl)tetrazolo[1,5-a]pyrazin-8-amine] | + (partial) | – | – |
| Nc1nc(-c2ccc(F)cc2)c(-c2ccc3ncc(Cl)n3c2)n2nnnc12 [1-23, 5-(3-chloroimidazo[1,2-a]pyridin-6-yl)-6-(4-fluorophenyl)tetrazolo[1,5-a]pyrazin-8-amine] | ++ (partial) | – | – |
| Cc1cc(-c2c(-c3ccc(F)cc3)nc(N)n3nnnc23)cc(C)n1 [1-28, 8-(2,6-dimethylpyridin-4-yl)-7-(4-fluorophenyl)tetrazolo[1,5-c]pyrimidin-5-amine] | – | – | A2b @ 10 μM Adenosine (cAMP IC50) [2]: + (partial) |
| Cc1ccnc2ccc(-c3c(-c4ccc(Cl)cc4)nc(N)c4nnnn34)cc12 [1-39, 6-(4-chlorophenyl)-5-(4-methylquinolin-6-yl)tetrazolo[1,5-a]pyrazin-8-amine] | – | +++ (partial) | – |

Continued, in another order:

| A2a @ 100 μM Adenosine (cAMP IC50) [1] | A2a @ 1 μM Adenosine (cAMP IC50) [1] | SMILES | other results |
| --- | --- | --- | --- |
| ++ (partial) | – | Cc1ccnc2ccc(-c3c(-c4ccc(F)cc4)nc(N)c4nnnn34)cc12 [1-6, 6-(4-fluorophenyl)-5-(4-methylquinolin-6-yl)tetrazolo[1,5-a]pyrazin-8-amine] | – |
| – | +++ (partial) | Cc1ccnc2ccc(-c3c(-c4ccc(C(=O)N(C)C)cc4)nc(N)c4nnnn34)cc12 [1-40, 4-(8-amino-5-(4-methylquinolin-6-yl)tetrazolo[1,5-a]pyrazin-6-yl)-N,N-dimethylbenzamide] | – |
| – | +++ (partial) | Cc1ccnc2ccc(-c3c(-c4cccc(Cl)c4)nc(N)c4nnnn34)cc12 [1-50, 6-(3-chlorophenyl)-5-(4-methylquinolin-6-yl)tetrazolo[1,5-a]pyrazin-8-amine] | – |
